The source of these data is patent US11246817B2, “Antimicrobial composition” (Conopco, Inc., priority 2016, dated 2022).

For the test, the system named is M. furfur (CBS 1878). Nature of the test: ΣFIC assay against Malassezia furfur (in-vitro susceptibility testing, alamar blue). It counts as cell-based. To be noted: for MIC: Malassezia furfur; for interaction with zinc pyrithione (synergy) in words: binary combination with zinc pyrithione, judged from ΣFIC; for ΣFIC: in combination with zinc pyrithione 0 to 12.5 ppm, climbazole 0 to 500 ppm, selenium sulfide 0 to 100 ppm. On the procedure:
A brief description of the method is given below.
Methods: ΣFIC assay against Malassezia furfur
They are then incubated at 32° C. for 48 hrs with shaking. Then, 1 ml of the first broth culture is transferred into 9 ml of fresh PB and incubated at 32° C. for 48 hrs with shaking. The final culture should contain 2 to 6×10^6 cells/ml. This is achieved by diluting using PB to 5*10^5 cell/ml.
The alcoholic compound was serially diluted (2-fold) to prepare in a range of 10-10,000 ppm in growth medium.
Binary combinations of ZPTO and the testing compound were prepared in 96-well plate by mixing 20 μl of zinc pyrithione solution with 20 μl of testing compound. The solution in each well were further mixed with 160 μl of PB and 20 μl of M. furfur. The final cell density in the testing plate is around 5*10^4 cell/ml, and the final concentration of actives in each well of the 96-wel plate were shown below.
The plate was incubated at 32° C. for one day. Then 20 μl of alamar blue (0.01%) was added into each well with a further incubation for one day to observe the color change. Red color indicates microbial growth and the non-changing blue color indicates no growth.
The MIC is defined as the absolute lowest concentration of active that provides complete microbial growth inhibition as indicated by the blue color of alamar blue under the tested condition.
The differing behaviours of inhibitory antimicrobials in isolation and mixtures have been widely explored using the concept of the Fractional Concentration (FC) and Fractional
Inhibitory Concentration (FIC). The parameter can be defined as follows: […]
The interactions between antimicrobials can be additive, synergistic or antagonistic depending on whether the efficacy of the combination is equivalent to, greater than or less than that obtained for the same total concentration of the individual components when tested alone.
These relationships can be expressed mathematically by summing the fractional MIC values for all the components present in the mixture to give the “fractional inhibition index”. There is no consistent approach in the academic or patent literature in defining precise limiting ΣFIC values that differentiate synergy from additivity or antagonism. In this study, we have adopted a liberal approach defining any binary mixture with ΣFIC <0.9 as showing evidence of synergistic behavior.
ΣFIC=FIC (component 1)+FIC (component 2)
ΣFIC=1 corresponds to additive bactericidal activity
ΣFIC>1 corresponds to antagonistic bactericidal activity
ΣFIC<0.9 corresponds to synergistic bactericidal activity
Climbazole was varied over a concentration of 0 to 500 ppm and selenium sulfide over a concentration of 0 to 100 ppm.
For orientation: The colour change of resazurin is a common sign of viable cells or microbes.

The mark [1] stands for this setting: CBS1878, read-out: Minimum Inhibition Concentration (MIC).

Read-outs that look alike come from different tables or passages of the source.

With `CC(C)(C)C(=O)C(Oc1ccc(Cl)cc1)n1ccnc1` (stereo not drawn) [climbazole], the “interaction with zinc pyrithione (synergy) in words” value is listed as “not synergistic” and the ΣFIC was found to be 2. Also, the MIC (CBS1878, active alone, lowest concentration giving complete growth inhibition (alamar blue stays blue), 32° C., Pityrosporum Broth, read-out: Minimum Inhibition Concentration (MIC)) was 3.9 µg/mL.

Regarding `C=CCc1ccc(O)c(-c2ccc(O)c(CC=C)c2)c1` [honokiol], the MIC under setting [1] is 1000 µg/mL.

Consider `C=CCc1ccc(O)c(-c2cc(CC=C)ccc2O)c1` [magnalol], for which the MIC under setting [1] came out at 500 µg/mL.

Turning to `COc1ccc(C(C)=O)c(O)c1` [paeonol], under setting [1], the MIC was determined as 500 µg/mL.

For the compound `S=[Se]=S` [selenium sulfide], the “interaction with zinc pyrithione (synergy) in words” value is “not synergistic” and the ΣFIC turned out to be 2. In addition, the “Minimum Inhibition Concentration (MIC)” value (active alone, lowest concentration giving complete growth inhibition (alamar blue stays blue), 32° C., Pityrosporum Broth) turned out to be 50 ppm.
